Test results reported in ChEMBL document CHEMBL5321200, “Discovery of the GSH responsive "Y-PROTACs" targeting ALK and CDK4/6 as a potential treatment for cancer” (Eur J Med Chem, 2023).
Calls of active or inactive are those of the source. No cut-off for these calls is given here.

Assays:
[1] = target: Cyclin-dependent kinase 6 (Homo sapiens) (UniProt Q00534); assay: Inhibition of CDK6 (unknown origin) at 0.05 uM by LANCE Ultra TR-FRET assay relative to control
[2] = tested on: NCI-H3122; assay: Induction of apoptosis in human NCI-H3122 cells assessed as total apoptotic cells at 2.5 uM incubated for 48 hrs by Annexin V-FITC/propidium iodide staining based flow cytometric analysis relative to control; format: functional
[3] = target: T1, Protein cereblon/ALK tyrosine kinase receptor/Echinoderm microtubule-associated protein-like 4 (Homo sapiens) (UniProt Q9UM73+Q9HC35+Q96SW2); assay: PROTAC activity at CRBN/EML4-ALK in human NCI-H3122 cells assessed as induction of EML4-ALK fusion protein degradation at 5 uM measured at 16 to 48 hrs by Western blot analysis; format: cell-based; details: time 16-48 hrs
[4] = tested on: NCI-H3122; assay: Induction of apoptosis in human NCI-H3122 cells assessed as early apoptotic cells at 1.25 uM incubated for 48 hrs by Annexin V-FITC/propidium iodide staining based flow cytometric analysis (reference value: 0.71%); format: functional
[5] = target: T1, Protein cereblon/ALK tyrosine kinase receptor/Echinoderm microtubule-associated protein-like 4 (Homo sapiens); assay: PROTAC activity at CRBN/EML4-ALK in human L02 cells assessed as reduction in ALK protein level at 1 to 20 uM incubated for 24 hrs by Western blot analysis; format: cell-based; details: dose 1-20 µM
[6] = tested on: NCI-H3122; assay: Induction of apoptosis in human NCI-H3122 cells assessed as late apoptotic cells at 2.5 uM incubated for 48 hrs by Annexin V-FITC/propidium iodide staining based flow cytometric analysis (reference value: 3.06%); format: functional
[7] = target: T2, Protein cereblon/Cyclin-dependent kinase 4 (Homo sapiens, UniProt P11802+Q96SW2); assay: PROTAC activity at CRBN/CDK4 in human NCI-H3122 cells assessed as reduction in CDK4 protein level at 5 uM incubated for 16 hrs followed by compound washout and measured after 8 hrs by Western blot analysis; format: cell-based
[8] = target: T2, Protein cereblon/Cyclin-dependent kinase 4; assay: PROTAC activity at CRBN/CDK4 in human NCI-H3122 cells assessed as induction of CDK4 degradation at 5 uM pretreated with pomalidomide for 4 hrs followed compound addition and measured after 24 hrs by Western blot analysis; format: cell-based

T1 sequence (Q96SW2 whole entry partner, the tested form may be a part): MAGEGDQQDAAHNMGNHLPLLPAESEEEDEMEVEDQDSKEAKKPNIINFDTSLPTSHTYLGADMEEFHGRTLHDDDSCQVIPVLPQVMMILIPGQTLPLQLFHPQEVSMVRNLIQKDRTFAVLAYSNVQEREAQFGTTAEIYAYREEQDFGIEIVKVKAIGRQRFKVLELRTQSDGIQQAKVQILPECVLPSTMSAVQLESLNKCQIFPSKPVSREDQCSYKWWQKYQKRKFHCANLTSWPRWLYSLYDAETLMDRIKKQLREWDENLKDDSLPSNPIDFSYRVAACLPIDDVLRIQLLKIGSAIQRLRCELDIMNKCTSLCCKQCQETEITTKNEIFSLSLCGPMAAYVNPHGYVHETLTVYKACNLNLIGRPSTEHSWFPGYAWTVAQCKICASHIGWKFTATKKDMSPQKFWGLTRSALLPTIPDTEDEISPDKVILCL
T1 sequence (Q9HC35 whole entry partner, the tested form may be a part): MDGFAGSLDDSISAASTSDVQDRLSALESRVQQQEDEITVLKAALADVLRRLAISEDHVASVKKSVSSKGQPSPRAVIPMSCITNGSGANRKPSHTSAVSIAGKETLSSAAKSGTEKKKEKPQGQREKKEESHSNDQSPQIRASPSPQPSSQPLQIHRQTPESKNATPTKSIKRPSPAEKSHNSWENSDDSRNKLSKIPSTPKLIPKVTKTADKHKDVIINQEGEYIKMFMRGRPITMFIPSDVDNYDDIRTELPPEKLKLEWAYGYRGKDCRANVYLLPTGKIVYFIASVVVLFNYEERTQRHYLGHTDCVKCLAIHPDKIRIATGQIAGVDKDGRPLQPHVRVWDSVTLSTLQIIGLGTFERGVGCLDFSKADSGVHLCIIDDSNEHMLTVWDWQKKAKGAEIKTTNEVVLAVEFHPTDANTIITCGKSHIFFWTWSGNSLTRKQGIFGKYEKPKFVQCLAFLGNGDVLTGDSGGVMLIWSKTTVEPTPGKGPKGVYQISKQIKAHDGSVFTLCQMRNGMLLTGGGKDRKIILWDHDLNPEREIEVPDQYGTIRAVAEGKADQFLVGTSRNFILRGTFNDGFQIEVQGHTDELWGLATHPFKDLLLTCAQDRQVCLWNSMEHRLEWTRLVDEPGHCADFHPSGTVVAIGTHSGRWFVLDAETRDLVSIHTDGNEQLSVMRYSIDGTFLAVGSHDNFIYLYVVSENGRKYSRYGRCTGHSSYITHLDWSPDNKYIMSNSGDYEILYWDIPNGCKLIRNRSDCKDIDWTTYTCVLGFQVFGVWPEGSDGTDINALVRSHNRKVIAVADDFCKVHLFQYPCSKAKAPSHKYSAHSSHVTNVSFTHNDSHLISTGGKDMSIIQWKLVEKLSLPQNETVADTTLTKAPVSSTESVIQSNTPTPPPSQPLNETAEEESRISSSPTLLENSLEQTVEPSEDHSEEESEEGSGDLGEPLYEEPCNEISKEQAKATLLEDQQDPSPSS
T1 sequence (Q9UM73 19-1620 limits assumed): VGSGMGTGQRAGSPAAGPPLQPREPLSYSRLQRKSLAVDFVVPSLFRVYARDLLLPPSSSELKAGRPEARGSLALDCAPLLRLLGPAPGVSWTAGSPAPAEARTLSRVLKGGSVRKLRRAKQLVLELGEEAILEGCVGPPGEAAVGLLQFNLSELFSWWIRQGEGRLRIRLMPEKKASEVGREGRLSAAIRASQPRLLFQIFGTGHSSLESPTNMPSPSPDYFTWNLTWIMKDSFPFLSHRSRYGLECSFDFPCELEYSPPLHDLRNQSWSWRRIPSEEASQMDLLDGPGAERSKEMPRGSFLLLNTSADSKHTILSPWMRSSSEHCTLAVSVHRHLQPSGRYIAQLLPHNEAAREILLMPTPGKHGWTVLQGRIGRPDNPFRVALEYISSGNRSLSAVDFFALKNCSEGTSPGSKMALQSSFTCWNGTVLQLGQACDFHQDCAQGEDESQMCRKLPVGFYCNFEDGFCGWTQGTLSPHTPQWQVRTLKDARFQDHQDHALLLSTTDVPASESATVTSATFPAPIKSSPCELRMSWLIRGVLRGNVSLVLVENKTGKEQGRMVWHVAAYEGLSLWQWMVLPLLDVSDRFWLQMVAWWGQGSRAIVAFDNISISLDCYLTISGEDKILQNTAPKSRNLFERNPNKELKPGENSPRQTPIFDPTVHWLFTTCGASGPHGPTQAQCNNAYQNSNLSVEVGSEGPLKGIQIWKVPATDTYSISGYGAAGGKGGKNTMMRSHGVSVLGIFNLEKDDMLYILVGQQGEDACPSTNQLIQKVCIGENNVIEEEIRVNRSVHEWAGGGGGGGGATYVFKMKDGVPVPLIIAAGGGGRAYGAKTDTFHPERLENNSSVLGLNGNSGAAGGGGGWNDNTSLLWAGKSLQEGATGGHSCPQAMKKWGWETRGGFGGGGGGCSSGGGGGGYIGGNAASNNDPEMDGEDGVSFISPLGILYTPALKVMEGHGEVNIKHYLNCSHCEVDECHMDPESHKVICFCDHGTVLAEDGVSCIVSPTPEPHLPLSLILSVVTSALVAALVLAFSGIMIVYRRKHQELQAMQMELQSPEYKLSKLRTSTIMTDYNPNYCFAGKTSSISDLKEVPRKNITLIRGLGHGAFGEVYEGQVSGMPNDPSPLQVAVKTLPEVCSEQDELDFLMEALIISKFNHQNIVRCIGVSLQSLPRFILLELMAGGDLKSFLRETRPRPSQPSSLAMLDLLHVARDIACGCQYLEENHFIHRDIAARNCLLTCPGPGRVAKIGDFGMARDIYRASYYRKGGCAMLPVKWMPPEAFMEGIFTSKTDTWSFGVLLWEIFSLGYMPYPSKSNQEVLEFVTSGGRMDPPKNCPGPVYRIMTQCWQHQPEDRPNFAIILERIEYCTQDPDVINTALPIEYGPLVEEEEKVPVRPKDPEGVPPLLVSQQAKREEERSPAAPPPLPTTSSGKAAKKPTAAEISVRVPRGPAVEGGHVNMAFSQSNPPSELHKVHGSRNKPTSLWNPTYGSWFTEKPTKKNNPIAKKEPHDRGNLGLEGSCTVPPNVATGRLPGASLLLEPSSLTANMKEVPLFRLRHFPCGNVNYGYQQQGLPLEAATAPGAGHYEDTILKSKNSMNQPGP
T2 sequence (P11802 2-303 limits assumed): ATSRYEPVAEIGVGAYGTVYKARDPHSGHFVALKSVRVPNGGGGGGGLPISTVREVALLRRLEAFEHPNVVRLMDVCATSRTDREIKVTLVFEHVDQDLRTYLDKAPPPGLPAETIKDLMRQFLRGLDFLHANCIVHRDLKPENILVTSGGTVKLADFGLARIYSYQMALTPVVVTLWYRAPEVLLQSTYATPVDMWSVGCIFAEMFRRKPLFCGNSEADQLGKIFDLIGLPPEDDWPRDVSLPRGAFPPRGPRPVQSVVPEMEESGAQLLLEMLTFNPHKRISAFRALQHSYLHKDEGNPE
T2 sequence (Q96SW2 whole entry partner): as the sequence (Q96SW2 whole entry partner, the tested form may be a part) above
Chain of Cyclin-dependent kinase 6 (Homo sapiens) (Q00534 whole entry): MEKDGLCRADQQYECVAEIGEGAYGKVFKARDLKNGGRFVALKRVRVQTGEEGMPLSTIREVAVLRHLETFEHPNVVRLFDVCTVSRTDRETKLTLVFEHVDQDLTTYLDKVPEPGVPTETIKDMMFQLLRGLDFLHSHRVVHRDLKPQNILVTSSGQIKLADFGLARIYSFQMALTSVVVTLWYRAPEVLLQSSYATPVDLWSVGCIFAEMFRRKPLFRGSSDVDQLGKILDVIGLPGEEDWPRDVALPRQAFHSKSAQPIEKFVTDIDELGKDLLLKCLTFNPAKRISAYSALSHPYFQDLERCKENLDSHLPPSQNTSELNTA

Q: How did the inhibition [1] turn out when CC(=O)c1c(C)c2cnc(Nc3ccc(N4CCN(CC(=O)NCCSSCCN(CC(=O)NCCNc5cccc6c5C(=O)N(C5CCC(=O)NC5=O)C6=O)C(=O)CCCCCCC(=O)N5CCC(c6cc(OC(C)C)c(Nc7ncc(Cl)c(Nc8ccccc8S(=O)(=O)C(C)C)n7)cc6C)CC5)CC4)cn3)nc2n(C2CCCC2)c1=O (stereo not drawn) was run?
A: Its inhibition is 92%.

Q: And the Activity [2]?
A: Its Activity is 17.2%.

Q: What about the Activity [3] of the same molecule?
A: Its Activity is “Active”.

Q: What about the Activity [4] of the same molecule?
A: Its Activity is 1.03%.

Q: And the Activity [5]?
A: Its Activity is “Active”.

Q: And the Activity [6]?
A: The Activity was 15.81%.

Q: And the Activity [7]?
A: Its Activity is “inactive”.

Q: What about the Activity [8] of the same molecule?
A: Its Activity is “inactive”.
